Laboratory results as given in patent publication US6777190B1, “Crosstalk inhibitors and their uses” (Biosite, Inc., priority 1991, dated 2004).

Test system: monoclonal antibodies to morphine (morp Ab)
Experiment: Crosstalk inhibitor test: colloidal gold ligand analogue conjugate binding at the morp Ab zone of a nylon membrane (color density DE*)
Conditions: 5 μl (1.1 μmol) inhibitor, Table 3 #6 vs #1

Structure (SMILES): O=C(O)CCCCCNC(=O)C1CCC(CN2C(=O)CC(SCCC(=O)O)C2=O)CC1 (stereo not shown) [CCM-MPA]
- decrease of the morphine response: about 30%
